According to the supplement of paper PMC11061612:

Columns and labels:
Paclitaxel = compound: CC(=O)O[C@H]1C(=O)[C@@]2(C)[C@H]([C@H](OC(=O)c3ccccc3)[C@]3(O)C[C@H](OC(=O)[C@H](O)[C@@H](NC(=O)c4ccccc4)c4ccccc4)C(C)=C1C3(C)C)[C@]1(OC(C)=O)CO[C@@H]1C[C@@H]2O [Paclitaxel]; conditions: max 3 µM
Outline: (§1)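 Viability was measured with CellTiter-Glo 2.0 luminescence after 72 hours of dosing at a final DMSO of typically 0.2%, and scaled between blank-well and DMSO-well means. Beforehand, cancer cell lines sat 24 hours at 37°C and 5% CO2 in 1536-well plates in 7.5 μl DMEM/F12 or RPMI with 10% FBS. A non-linear mixed effects model fitted two-parameter logistic curves to the dose responses. The single-agent IC50 comes from these fits.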

Doxorubicin = compound: COc1cccc2c1C(=O)c1c(O)c3c(c(O)c1C2=O)C[C@@](O)(C(=O)CO)C[C@@H]3O[C@H]1C[C@H](N)[C@H](O)[C@H](C)O1 [Doxorubicin]; conditions: max 1 µM
Outline: as §1

5-Fluorouracil = compound: O=c1[nH]cc(F)c(=O)[nH]1 [5-Fluorouracil]; conditions: max 20 µM
Outline: as §1

AZD6738 = compound: C[C@@H]1COCCN1C2=NC(=NC(=C2)C3(CC3)[S@](=N)(=O)C)C4=C5C=CNC5=NC=C4 [AZD6738]; conditions: max 10 µM
Outline: as §1

AZD0156 = compound: CN(C)CCCOc1ccc(-c2ccc3ncc4c(c3c2)n(C2CCOCC2)c(=O)n4C)cn1 [AZD0156]; conditions: max 3 µM
Outline: as §1

AZD5153 = compound: COc1nnc2ccc(N3CCC(c4ccc(OCCN5CCN(C)C(=O)[C@H]5C)cc4)CC3)nn12 [AZD5153]; conditions: max 1 µM
Outline: as §1

AZD5991 = compound: Cc1c2c(nn1C)CSCc1cc(n(C)n1)CSc1cc(c3ccccc3c1)OCCCc1c(C(=O)O)n(C)c3c-2c(Cl)ccc13 [AZD5991]; conditions: max 1 µM
Outline: as §1

Crizotinib = compound: C[C@@H](Oc1cc(-c2cnn(C3CCNCC3)c2)cnc1N)c1c(Cl)ccc(F)c1Cl [Crizotinib]; conditions: max 10 µM
Outline: as §1

Gefitinib = compound: COc1cc2ncnc(Nc3ccc(F)c(Cl)c3)c2cc1OCCCN1CCOCC1 [Gefitinib]; conditions: max 10 µM
Outline: as §1

Venetoclax = compound: CC1(C)CCC(CN2CCN(c3ccc(C(=O)NS(=O)(=O)c4ccc(NCC5CCOCC5)c([N+](=O)[O-])c4)c(Oc4cnc5[nH]ccc5c4)c3)CC2)=C(c2ccc(Cl)cc2)C1 [Venetoclax]; conditions: max 1 µM
Outline: as §1

[1] = compound: O=C(Nc1ccc2[nH]nc(-c3ccncc3)c2c1)[C@@H]1CCN(CC(=O)N2CCN(c3ccc(-c4ncccn4)cc3)CC2)C1; conditions: max 5 µM
Outline: as §1

AZD5363 = compound: C1CN(CCC1(C(=O)N[C@@H](CCO)C2=CC=C(C=C2)Cl)N)C3=NC=NC4=C3C=CN4 [AZD5363]; conditions: max 10 µM
Outline: as §1

AZD2811 = compound: CCN(CCO)CCCOc1ccc2c(Nc3cc(CC(=O)Nc4cccc(F)c4)[nH]n3)ncnc2c1 [AZD2811]; conditions: max 1 µM
Outline: as §1

Alisertib = compound: COc1cc(Nc2ncc3c(n2)-c2ccc(Cl)cc2C(c2c(F)cccc2OC)=NC3)ccc1C(=O)O [Alisertib]; conditions: max 10 µM
Outline: as §1

AZD7648 = compound: Cc1cc2ncnn2cc1Nc1ncc2c(n1)n(C1CCOCC1)c(=O)n2C [AZD7648]; conditions: max 10 µM
Outline: as §1

Prexasertib = compound: COc1cccc(OCCCN)c1-c1cc(Nc2cnc(C#N)cn2)n[nH]1 [Prexasertib]; conditions: max 1 µM
Outline: as §1

Gemcitabine = compound: Nc1ccn([C@@H]2O[C@H](CO)[C@@H](O)C2(F)F)c(=O)n1 [Gemcitabine]; conditions: max 0.3 µM
Outline: as §1

SRA737 = compound: N#Cc1cnc(Nc2cc(NC[C@H]3CNCCO3)c(C(F)(F)F)cn2)cn1 [SRA737]; conditions: max 10 µM
Outline: as §1

AZD1390 = compound: CC(C)n1c(=O)n(C)c2cnc3cc(F)c(-c4ccc(OCCCN5CCCCC5)nc4)cc3c21 [AZD1390]; conditions: max 0.3 µM
Outline: as §1

Etoposide = compound: COc1cc([C@@H]2c3cc4c(cc3[C@@H](O[C@@H]3O[C@@H]5CO[C@@H](C)O[C@H]5[C@H](O)[C@H]3O)[C@H]3COC(=O)[C@H]23)OCO4)cc(OC)c1O [Etoposide]; conditions: max 10 µM
Outline: as §1

Selumetinib = compound: Cn1cnc2c(F)c(Nc3ccc(Br)cc3Cl)c(C(=O)NOCCO)cc21 [Selumetinib]; conditions: max 10 µM
Outline: as §1

Olaparib = compound: O=C(c1cc(Cc2n[nH]c(=O)c3ccccc23)ccc1F)N1CCN(C(=O)C2CC2)CC1 [Olaparib]; conditions: max 10 µM
Outline: as §1

AZD8186 = compound: C[C@@H](Nc1cc(F)cc(F)c1)c1cc(C(=O)N(C)C)cc2c(=O)cc(N3CCOCC3)oc12 [AZD8186]; conditions: max 10 µM
Outline: as §1

SN-38 = compound: CCc1c2c(nc3ccc(O)cc13)-c1cc3c(c(=O)n1C2)COC(=O)[C@]3(O)CC [SN-38]; conditions: max 0.3 µM
Outline: as §1

Dasatinib = compound: CC1=C(C(=CC=C1)Cl)NC(=O)C2=CN=C(S2)NC3=CC(=NC(=N3)C)N4CCN(CC4)CCO [Dasatinib]; conditions: max 2 µM
Outline: as §1

MK-2206 = compound: NC1(c2ccc(-c3nc4ccn5c(=O)[nH]nc5c4cc3-c3ccccc3)cc2)CCC1 [MK-2206]; conditions: max 10 µM
Outline: as §1

Palbociclib = compound: CC(=O)c1c(C)c2cnc(Nc3ccc(N4CCNCC4)cn3)nc2n(C2CCCC2)c1=O [Palbociclib]; conditions: max 10 µM
Outline: as §1

Carboplatin = compound: C1CC(C1)(C(=O)[O-])C(=O)[O-].N.N.[Pt+2] [Carboplatin]; conditions: max 10 µM
Outline: as §1

Trametinib = compound: CC(=O)Nc1cccc(-n2c(=O)n(C3CC3)c(=O)c3c(Nc4ccc(I)cc4F)n(C)c(=O)c(C)c32)c1 [Trametinib]; conditions: max 1 µM
Outline: as §1

Savolitinib = compound: C[C@@H](c1ccc2nccn2c1)n1nnc2ncc(-c3cnn(C)c3)nc21 [Savolitinib]; conditions: max 1 µM
Outline: as §1

Lapatinib = compound: CS(=O)(=O)CCNCc1ccc(-c2ccc3ncnc(Nc4ccc(OCc5cccc(F)c5)c(Cl)c4)c3c2)o1 [Lapatinib]; conditions: max 10 µM
Outline: as §1

AZD1775 = compound: C=CCn1c(=O)c2cnc(Nc3ccc(N4CCN(C)CC4)cc3)nc2n1-c1cccc(C(C)(C)O)n1 [AZD1775]; conditions: max 3 µM
Outline: as §1

SG3199 = compound: CC1=CN2[C@@H](C1)C=NC3=CC(=C(C=C3C2=O)OC)OCCCCCOC4=C(C=C5C(=C4)N=C[C@@H]6CC(=CN6C5=O)C)OC [SG3199]; conditions: max 0.001 µM
Outline: as §1

Taselisib = compound: Cc1nc(-c2cn3c(n2)-c2ccc(-c4cnn(C(C)(C)C(N)=O)c4)cc2OCC3)n(C(C)C)n1 [Taselisib]; conditions: max 10 µM
Outline: as §1

AZD4320 = compound: CN(CC[C@H](CSC1=CC=CC=C1)NC2=C(C=C(C=C2)S(=O)(=O)NC(=O)C3=CC=C(C=C3)N4CCC(CC4)[C@H](C5=CC=CC=C5C6=CC=C(C=C6)Cl)O)S(=O)(=O)C(F)(F)F)CCO [AZD4320]; conditions: max 1 µM
Outline: as §1

Cell Line | IC50, cell viability 72 h (Paclitaxel) [nM] | IC50, cell viability 72 h (Doxorubicin) [nM] | IC50, cell viability 72 h (5-Fluorouracil) [nM] | IC50, cell viability 72 h (AZD6738) [nM] | IC50, cell viability 72 h (AZD0156) [nM] | IC50, cell viability 72 h (AZD5153) [nM] | IC50, cell viability 72 h (AZD5991) [nM] | IC50, cell viability 72 h (Crizotinib) [nM] | IC50, cell viability 72 h (Gefitinib) [nM] | IC50, cell viability 72 h (Venetoclax) [nM] | IC50, cell viability 72 h [1] [nM] | IC50, cell viability 72 h (AZD5363) [nM] | IC50, cell viability 72 h (AZD2811) [nM] | IC50, cell viability 72 h (Alisertib) [nM] | IC50, cell viability 72 h (AZD7648) [nM] | IC50, cell viability 72 h (Prexasertib) [nM] | IC50, cell viability 72 h (Gemcitabine) [nM] | IC50, cell viability 72 h (SRA737) [nM] | IC50, cell viability 72 h (AZD1390) [nM] | IC50, cell viability 72 h (Etoposide) [nM] | IC50, cell viability 72 h (Selumetinib) [nM] | IC50, cell viability 72 h (Olaparib) [nM] | IC50, cell viability 72 h (AZD8186) [nM] | IC50, cell viability 72 h (SN-38) [nM] | IC50, cell viability 72 h (Dasatinib) [nM] | IC50, cell viability 72 h (MK-2206) [nM] | IC50, cell viability 72 h (Palbociclib) [nM] | IC50, cell viability 72 h (Carboplatin) [nM] | IC50, cell viability 72 h (Trametinib) [nM] | IC50, cell viability 72 h (Savolitinib) [nM] | IC50, cell viability 72 h (Lapatinib) [nM] | IC50, cell viability 72 h (AZD1775) [nM] | IC50, cell viability 72 h (SG3199) [nM] | IC50, cell viability 72 h (Taselisib) [nM] | IC50, cell viability 72 h (AZD4320) [nM]
A4-Fuk (B-Lymphoblastic Leukemia) | 3.17 | 237 | 3920 | 2210 | 2420 | 29.4 | 77.6 | 2210 | > 10000 | 966 | 771 | 2060 | > 1000 | 207 | 5150 | 7.45 | 6.82 | 844 | > 300 | 321 | > 10000 | > 10000 | 5860 | 17.4 | > 2000 | 2770 | 4240 | > 10000 | 282 | > 1000 | 7570 | 110 | > 1 | 234 | > 1000
COLO-668 (Small Cell Lung Carcinoma) | > 3000 | 329 | > 20000 | 8160 | > 3000 | > 1000 | > 1000 | > 10000 | > 10000 | > 1000 | 4480 | > 10000 | > 1000 | > 10000 | > 10000 | 63.7 | 41.3 | > 10000 | > 300 | > 10000 | > 10000 | > 10000 | > 10000 | 5.32 | > 2000 | > 10000 | > 10000 | > 10000 | 408 | > 1000 | > 10000 | > 3000 | > 1 | 5340 | 319
COLO-679 (Melanoma) | 658 | 342 | > 20000 | 4920 | > 3000 | > 1000 | > 1000 | > 10000 | > 10000 | > 1000 | 90.6 | > 10000 | > 1000 | > 10000 | > 10000 | 11.2 | 15.2 | 1890 | > 300 | 7180 | 242 | > 10000 | > 10000 | 46.1 | > 2000 | > 10000 | > 10000 | > 10000 | 3.7 | > 1000 | > 10000 | > 3000 | > 1 | > 10000 | > 1000
Ca-Ski (Cervical Carcinoma) | 23.8 | 355 | > 20000 | > 10000 | > 3000 | 867 | > 1000 | > 10000 | > 10000 | > 1000 | > 5000 | > 10000 | > 1000 | 8320 | > 10000 | 83.8 | 222 | > 10000 | > 300 | 8850 | > 10000 | > 10000 | > 10000 | 11.7 | 558 | > 10000 | > 10000 | > 10000 | > 1000 | > 1000 | > 10000 | 657 | > 1 | 2220 | > 1000
DU-145 (Prostate Carcinoma) | 187 | > 1000 | > 20000 | > 10000 | > 3000 | > 1000 | > 1000 | > 10000 | > 10000 | > 1000 | > 5000 | > 10000 | > 1000 | > 10000 | > 10000 | 262 | > 300 | > 10000 | > 300 | > 10000 | > 10000 | > 10000 | > 10000 | 47.3 | > 2000 | > 10000 | > 10000 | > 10000 | > 1000 | > 1000 | > 10000 | > 3000 | > 1 | > 10000 | > 1000
